Measured values reported in patent US7345091B2, “Carotenoid ether analogs or derivatives for the inhibition and amelioration of disease” (Cardax Pharmaceuticals, Inc., priority 2002, dated 2008).

How the values were obtained:
[1] = system: superoxide anion; assay: Superoxide anion scavenging by EPR (DEPMPO spin trap) in phorbol ester-stimulated isolated neutrophils; assay type: cell-based, human; conditions: Homo sapiens, Neutrophil, Solvent DMSO, 0.1 mM; read-out: Mean (% inhibition) of superoxide anion signal
Protocol: In an experiment, neutrophils were isolated on a Percoll gradient from whole blood from a human volunteer. The isolated neutrophils were then re-suspended in phosphate-buffered saline, and maximally stimulated with phorbol ester to induce the respiratory burst and production of superoxide anion. To the solution of activated human neutrophils, the disodium salt disuccinate astaxanthin derivative XVI was added at various concentrations, and the superoxide signal [as measured with electron paramagnetic resonance (EPR) spectroscopy] was subsequently measured. […] The disodium salt disuccinate astaxanthin derivative XVI tested at 100 μM scavenged 28% of the total signal. At 3 mM, almost no superoxide signal remained. […] In addition to reducing the superoxide anion signal important in ischemia-reperfusion injury, it is also likely that myocardial salvage can be achieved with the described carotenoid derivative, as superoxide anion plays a major role in tissue injury and death during prolonged myocardial ischemia. In a third experiment, neutrophils were again isolated on a Percoll gradient from whole blood from a second human volunteer. The isolated neutrophils were then re-suspended in phosphate-buffered saline, and maximally stimulated with phorbol ester to induce the respiratory burst and production of superoxide anion. […] Astaxanthin 2E was dissolved in HPLC grade dimethylsulfoxide (DMSO; Sigma-Aldrich, St. Louis, Mo.). The disodium disuccinate derivatives XVI of astaxanthin 2E were tested separately in […] formulations: statistical mixture of stereoisomers (as for astaxanthin, above, a 1:2:1 mixture of all-E; labeled as “mixture” in all tables and figures); 3S,3'S, and 3R,3'R (optical isomers or enantiomers); and meso (mixture of identical 3S,3'R and 3'S,3R; diastereomers of the enantiomeric pair). […] The disuccinate derivatives were first tested at the appropriate final concentrations in pure aqueous solution (deionized water) from stock solutions of 10 mM. Each of the four disuccinate derivatives were then tested from stock solutions prepared in a 1:2 mixture of ethanol (final concentration of EtOH in stock solution 331⁄3%; final concentration in isolated neutrophil assay 0.3%; HPLC grade ethanol, Sigma-Aldrich, St. Louis, Mo.) at 10 mM. […] Metaphore® Pharmaceuticals, Inc., St. Louis, Mo.) were also performed. Human polymorphonuclear leukocytes (PMNs) were isolated from freshly sampled venous blood of a single volunteer by Percoll density gradient centrifugation, which yielded PMNs with a purity of >95%. Each 10 mL of whole blood was mixed with 0.8 mL of 0.1 M EDTA and 25 mL of saline. The diluted blood was layered over 9 mL of Percoll at a specific density of 1.080 g/mL. After centrifugation at 400×g for 20 min at 20° C., the plasma, mononuclear cell, and Percoll layers were removed. Erythrocytes were lysed by addition of 18 mL of ice-cold water for 30 s, followed by 2 mL of 10× PIPES buffer (25 mM PIPES, 110 mM NaCl, and 5 mM KCl, titrated to pH 7.4 with NaOH). Cells were pelleted at 4° C., the supernatant was decanted, and the procedure was repeated. After the second hypotonic lysis, cells were washed twice with PAG buffer (PIPES buffer containing 0.003% human serum albumin and 0.1% glucose). Afterward, PMNs were counted by light microscopy on a hemocytometer. The final pellet was then suspended in PAG-CM buffer (PAG buffer with 1 mM CaCl2 and 1 mM MgCl2). All EPR measurements were performed using a Bruker ER 300 EPR spectrometer operating at X-band with a TM110 cavity. The microwave frequency was measured with a Model 575 microwave counter (EIP Microwave, Inc., San Jose, Calif.). To measure O^ -2 generation from phorbol-ester (PMA)-stimulated PMNs, EPR spin-trapping studies were performed using DEPMPO (Oxis, Portland, Oreg.) at 10 mM. 1×10^6 PMNs were stimulated with PMA (1 ng/mL) and loaded into capillary tubes for EPR measurements. […]

[2] = human, in vivo, po, 1.1 mg/kg; cited from earlier work
[3] = system: C3H10T1/2 cell culture model; assay: Inhibition of MCA-induced neoplastic transformation; assay type: cell-based, mouse; conditions: for percent reduction of MCA-induced neoplastic transformation: 3×10^-6 M in THF
Protocol: Non-esterified, free astaxanthin 2E is generated in the mammalian gut after oral administration of esterified astaxanthin. Only free astaxanthin is found in mammalian plasma and solid organs. […] Inherent esterase activity of serum albumin, and the action of promiscuous esterases in serum and solid organs rapidly generates non-esterified, free astaxanthin after parenteral administration of the disodium disuccinate astaxanthin derivative (XVI). […] An experiment was performed to assess the ability of non-esterified, free astaxanthin (the in vivo final cleavage product of the disodium salt disuccinate astaxanthin derivative (XVI), tested as the all-trans mixture of stereoisomers 3S,3′S, meso, and 3R,3′R in a 1:2:1 ratio) to inhibit neoplastic transformation in the C3H10T1/2 cell culture model developed in the lab of the late Charles Heidelberger (Reznikoff, 1973).
This experiment was conducted according to protocols established previously (Bertram, 1991 and Pung, 1988). In brief, the 10T1/2 cells, derived from mouse embryonic fibroblasts, were seeded at a density of 10^3 cells/60 mm dish in Eagle's Basal Media (BME) (Atlanta Biologicals, Atlanta, Ga.), supplemented with 4% fetal calf serum (Atlanta Biologicals, Atlanta, Ga.) and 25 μg/mL gentamicin sulfate (Sigma, St. Louis, Mo.). Cells were treated 24 hours later with 5.0 μg/ml MCA (Sigma, St. Louis, Mo.) in acetone or with 0.5% acetone (final concentration) as a control. Media was changed 24 hours after MCA treatment. Cells were treated with astaxanthin in THF or with retinol acetate in acetone 7 days later, and re-treated every 7 days for 4 weeks. Other dishes were treated with the appropriate solvent controls. After 5 weeks from the start of the experiment, cells were fixed with methanol and stained with 10% Giemsa stain (Sigma, St. Louis, Mo.) and scored for type II and type III foci as per Reznikoff (1973).

[4] = Text: FIG. 27 and FIG. 28 depict the results of spectral analysis after flash photolysis of the formation of triplet and carotenoid cation radical states for non-esterified, free astaxanthin 2E and the diacid disuccinate astaxanthin derivative XV were obtained. Formation of the carotenoid cation radical is a measure of the potential biophysical behavior of the novel derivative as an antioxidant. If a derivative retains the antioxidant behavior of non-esterified, free astaxanthin, then all previously documented (i.e. literature precedent) therapeutic applications for astaxanthin can be reasonably assumed for the novel derivative, including at least singlet oxygen quenching, lipid peroxidation chain-breaking, and/or direct radical scavenging.
In this experiment, nitronaftalin (NN) was used as the photosensitizer. After irradiation, the excited sensitizer (NN*) forms a sensitizer triplet (^3NN). When ^3NN encounters a carotenoid, energy and electron transfer reactions with ^3NN take place. The resulting relatively stable ^3car and carotenoid cation radicals (car*^+) are detected by characteristic absorption bands. Non-polar solvents (e.g. hexane) favor the formation of ^3car, and more polar solvents (alcohols, water) favor the formation of the car.^+. The anion radical of the sensitizer (NN.^−) is not typically seen because of a low absorption coefficient.
The ^3car decays rather quickly. After 15 μs, half of the ^3car has disappeared, and after 50 μs, no ^3car is left.
The spectrum of asta 2E is nearly identical to that of astaCOOH XV. After 50 μs, the ^3car has disappeared. During this time frame, the car.^+ is stable. Negative and positive peaks in the absorption spectra for astaCOOH XV and asta 2E are superimposable.

[5] = read-out: antioxidant ED50 (protective level); cited from earlier work

CC1=C(/C=C/C(C)=C/C=C/C(C)=C/C=C/C=C(C)/C=C/C=C(C)/C=C/C2=C(C)C(=O)C(O)CC2(C)C)C(C)(C)CC(O)C1=O (stereo not drawn) [Astaxanthin 2E, Astaxanthin]
inhibition at 100 µM [1]: 28%
Cmax, plasma levels [2]: 1.3 µg/mL
percent reduction of MCA-induced neoplastic transformation ([3]; 4-week treatment): complete suppression of the transformed phenotype
percent reduction of MCA-induced neoplastic transformation ([3]; 4-week treatment, listed as Non-esterified, free astaxanthin): 100%
numbers of MCA-induced transformed foci ([3]; 3×10^-6 M, 1×10^-6 M and 3×10^-7 M, 4-week treatment, vs MCA + THF control): concentration-dependent decrease
potency as inhibitor of transformation compared with previously tested carotenoids ([3]; comparison with data of Bertram, 1991 (1×10^-5 M)): far more potent inhibitor of transformation than either β-carotene or canthaxanthin
stability of the carotenoid cation radical (car.+) [4]: stable
time after which no 3car (carotenoid triplet) is left ([4]; acetonitrile, sensitizer NN): 50 μs
EC50 [5]: 0.2 µM
